# Laboratory results: paper PMC6713165, “Identification of 1H-pyrazolo[3,4-b]pyridine derivatives as potent ALK-L1196M inhibitors” (Journal of Enzyme Inhibition and Medicinal Chemistry, 2019)
# Tests used:
# ALK-L1196M = ALK-L1196M (Homo sapiens, UniProt Q9UM73, L1196M); assay: Radiometric biochemical kinase assay, ALK-L1196M; settings: radiometric kinase assay, 10 µM ATP
# Experimental: (§1) Biochemical kinase assay was performed by methods previously reported. Kinase reactions of all test compounds except 10g were carried out at 10 µM ATP. Kinase reaction of 10g was performed at three different concentrations of ATP (10/50/100 µM).
# ALK-C1156Y = ALK-C1156Y (Homo sapiens, UniProt Q9UM73, C1156Y); assay: Radiometric biochemical kinase assay, ALK-C1156Y
# Experimental: as §1
# c-Met = c-Met (Homo sapiens, UniProt P08581); assay: Biochemical kinase assay, c-Met
# Experimental: as §1
# H2228 cells = assay: Apoptosis analysis (annexin V-FITC/PI, FACS), H2228; assay type: cell-based; settings: H2228, 48 h, in words
# Experimental: After 24–48 h following compound treatment, cells were harvested and stained with annexin V (1:500 diluted in annexin V buffer) for 30 min and PI (1:200) solution for 30 min. 1 × 10^6 cells were analysed using flow cytometric analysis. For the cell cycle arrest analysis, cells were harvested by trypsinisation and fixed with 70% ethanol overnight at −20 °C. The next day, cells were harvested and washed with cold DPBS at 500 × g.
# [1] = test system: ALK autophosphorylation and STAT3, ERK, PLC-gamma phosphorylation in ALK wt-TEL Ba/F3, ALK L1196M-TEL Ba/F3 and H2228 cell lines; assay: Western blot of ALK autophosphorylation and downstream signalling; assay type: cell-based; settings: in words
# Experimental: (§2) Cells were harvested and lysed using IP buffer containing 50 mM HEPES (pH 7.4), 1% Triton X-100, 2 mM EDTA, 150 mM NaCl, 2.5 mM NaF, 5 mM Na3VO4, protease inhibitor cocktail tablet (Roche, # 11–878-580–001). The protein concentration was determined by Bradford assay. Proteins were separated using SDS-PAGE and transferred onto NC membrane. The membranes were blocked using 5% skim milk in TBS-T buffer. The rabbit polyclonal antibody against phospho-ALK (Tyr1604, # 3341), phospho-ERK1/2 (Thr202/Tyr204, # 8544), phospho- PLC-gamma (Tyr783, # 14008), phospho-STAT3 (Tyr705, # 4074) and cleaved caspase3 (# 9661) were purchased from Cell Signalling Technologies, and PARP1/2 (H-250, # sc-7150) and anti-β-actin (# sc-47778) antibody was obtained from Santa Cruz Biotechnology. All primary antibodies were diluted in TBS-T at 1:1000. Each primary antibody was incubated overnight at 4 °C, followed by the secondary antibody treatment for 1 h at room temperature. Secondary antibodies were purchased from genDEPOT. Proteins were detected using ECL substrate, and then exposed to X-ray film.
# [2] = test system: cleaved PARP and cleaved caspase-3 in ALK wt-TEL and ALK L1196M-TEL Ba/F3 cells; assay: Western blot of apoptosis markers; assay type: cell-based; settings: 36 h, in words
# Experimental: as §2
# Sequence of c-Met (P08581 25-1390): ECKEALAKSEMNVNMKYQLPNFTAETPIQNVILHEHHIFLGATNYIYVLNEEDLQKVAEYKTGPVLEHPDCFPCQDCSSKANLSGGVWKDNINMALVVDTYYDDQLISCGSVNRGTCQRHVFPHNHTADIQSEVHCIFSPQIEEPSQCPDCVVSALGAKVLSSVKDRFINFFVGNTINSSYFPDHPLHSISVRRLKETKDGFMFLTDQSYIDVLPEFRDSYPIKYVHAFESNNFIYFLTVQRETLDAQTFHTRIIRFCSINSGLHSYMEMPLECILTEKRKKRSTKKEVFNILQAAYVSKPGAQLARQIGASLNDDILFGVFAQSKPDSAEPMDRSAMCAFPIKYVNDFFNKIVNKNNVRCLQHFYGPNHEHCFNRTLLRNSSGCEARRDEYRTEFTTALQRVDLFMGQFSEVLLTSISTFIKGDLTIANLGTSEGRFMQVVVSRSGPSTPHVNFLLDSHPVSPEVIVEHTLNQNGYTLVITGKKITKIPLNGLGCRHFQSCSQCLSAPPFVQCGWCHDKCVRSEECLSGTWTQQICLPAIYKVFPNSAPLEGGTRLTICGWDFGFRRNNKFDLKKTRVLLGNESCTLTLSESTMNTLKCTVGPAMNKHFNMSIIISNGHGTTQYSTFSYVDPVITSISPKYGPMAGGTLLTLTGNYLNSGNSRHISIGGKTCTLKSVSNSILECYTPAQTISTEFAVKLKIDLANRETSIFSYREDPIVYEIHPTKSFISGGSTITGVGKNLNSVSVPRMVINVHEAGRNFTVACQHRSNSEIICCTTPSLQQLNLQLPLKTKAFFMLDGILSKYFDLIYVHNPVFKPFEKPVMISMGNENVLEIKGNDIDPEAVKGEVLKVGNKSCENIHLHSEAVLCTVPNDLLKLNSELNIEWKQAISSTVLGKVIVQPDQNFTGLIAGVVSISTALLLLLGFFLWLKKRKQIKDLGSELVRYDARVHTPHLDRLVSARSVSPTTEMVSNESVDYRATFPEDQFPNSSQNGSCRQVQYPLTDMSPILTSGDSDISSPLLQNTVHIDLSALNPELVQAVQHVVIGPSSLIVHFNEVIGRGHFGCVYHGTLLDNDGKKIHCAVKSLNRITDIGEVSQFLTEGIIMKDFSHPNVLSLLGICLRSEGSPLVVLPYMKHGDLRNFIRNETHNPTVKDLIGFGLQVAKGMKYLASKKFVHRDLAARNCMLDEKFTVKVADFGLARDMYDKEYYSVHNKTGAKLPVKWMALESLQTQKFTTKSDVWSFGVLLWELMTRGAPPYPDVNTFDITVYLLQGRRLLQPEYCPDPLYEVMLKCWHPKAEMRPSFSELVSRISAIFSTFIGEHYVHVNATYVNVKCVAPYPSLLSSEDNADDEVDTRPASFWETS
# Sequence of ALK-L1196M (Q9UM73 19-1620 L1196M): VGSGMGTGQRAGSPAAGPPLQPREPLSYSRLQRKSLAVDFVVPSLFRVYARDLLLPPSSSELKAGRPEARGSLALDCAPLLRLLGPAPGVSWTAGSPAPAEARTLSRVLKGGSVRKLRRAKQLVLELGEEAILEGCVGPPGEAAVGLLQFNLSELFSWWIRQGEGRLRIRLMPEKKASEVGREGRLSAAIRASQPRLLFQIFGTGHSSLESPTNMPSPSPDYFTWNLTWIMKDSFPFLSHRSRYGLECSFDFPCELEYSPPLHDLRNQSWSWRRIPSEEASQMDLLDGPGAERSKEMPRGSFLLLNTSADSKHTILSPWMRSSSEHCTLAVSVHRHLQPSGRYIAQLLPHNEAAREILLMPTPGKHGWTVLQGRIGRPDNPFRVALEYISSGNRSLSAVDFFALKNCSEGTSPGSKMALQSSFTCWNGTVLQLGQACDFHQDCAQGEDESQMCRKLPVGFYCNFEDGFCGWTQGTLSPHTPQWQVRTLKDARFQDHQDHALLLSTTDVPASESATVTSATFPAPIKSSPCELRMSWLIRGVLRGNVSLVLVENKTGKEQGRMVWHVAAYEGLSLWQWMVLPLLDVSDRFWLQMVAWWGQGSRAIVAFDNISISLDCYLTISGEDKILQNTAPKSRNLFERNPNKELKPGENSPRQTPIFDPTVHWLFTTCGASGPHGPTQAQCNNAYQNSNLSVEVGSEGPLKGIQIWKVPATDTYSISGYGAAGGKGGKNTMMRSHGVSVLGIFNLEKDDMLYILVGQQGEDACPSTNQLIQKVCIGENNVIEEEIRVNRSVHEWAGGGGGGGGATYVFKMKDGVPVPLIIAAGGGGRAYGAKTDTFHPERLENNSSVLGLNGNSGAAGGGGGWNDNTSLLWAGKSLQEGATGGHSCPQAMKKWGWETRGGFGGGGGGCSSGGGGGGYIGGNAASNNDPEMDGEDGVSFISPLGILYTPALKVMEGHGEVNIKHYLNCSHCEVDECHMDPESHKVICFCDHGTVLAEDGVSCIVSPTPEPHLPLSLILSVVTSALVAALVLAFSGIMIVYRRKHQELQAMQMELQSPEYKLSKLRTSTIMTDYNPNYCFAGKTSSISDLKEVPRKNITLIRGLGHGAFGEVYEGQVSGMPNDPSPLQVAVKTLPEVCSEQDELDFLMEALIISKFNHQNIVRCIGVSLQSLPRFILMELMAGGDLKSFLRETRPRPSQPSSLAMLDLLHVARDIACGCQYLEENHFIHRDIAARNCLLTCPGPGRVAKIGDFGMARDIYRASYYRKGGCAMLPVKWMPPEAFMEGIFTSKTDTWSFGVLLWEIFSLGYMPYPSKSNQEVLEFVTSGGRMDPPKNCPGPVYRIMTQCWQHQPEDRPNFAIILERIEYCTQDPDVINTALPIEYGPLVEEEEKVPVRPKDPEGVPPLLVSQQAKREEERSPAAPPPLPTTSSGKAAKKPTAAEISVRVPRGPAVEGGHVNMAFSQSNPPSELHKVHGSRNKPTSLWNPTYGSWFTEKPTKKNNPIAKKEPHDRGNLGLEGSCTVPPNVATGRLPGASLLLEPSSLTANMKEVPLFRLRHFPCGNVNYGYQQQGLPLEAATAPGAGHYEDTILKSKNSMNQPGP
# Sequence of ALK-C1156Y (Q9UM73 19-1620 C1156Y): as the sequence (Q9UM73 19-1620 L1196M) above, with C1138Y, M1178L counted along it
compound,measurement,setting,value
"CN1CCN(c2ccc(C(=O)Nc3n[nH]c4ncc(S(=O)(=O)c5cccc(F)c5)cc34)cc2)CC1 [10g, N-(5-((3-Fluorophenyl)sulfonyl)-1H-pyrazolo[3,4-b]pyridin-3-yl)-4–(4-methylpiperazin-1-yl)benzamide]",IC50,ALK-L1196M,< 0.5 nM
same,IC50,ALK-C1156Y,1.81 nM
same,"selectivity, more potent against ALK-wt than c-Met",c-Met; ALK-wt vs c-Met IC50,over 7000 fold
same,IC50,c-Met; biochemical kinase assay,3780 nM
same,apoptosis induction (FACS),H2228 cells,induces apoptosis in H2228 cells in a dose dependent fashion
same,ALK autophosphorylation (western blot),"[1]; 1 and 10 µM, 2 h, ALK wt-TEL Ba/F3, ALK L1196M-TEL Ba/F3 and H2228 cell lines",effectively attenuates
same,"phosphorylation levels of STAT3, ERK and PLC-gamma (western blot)","[1]; 2 h, dose-dependent",moderately suppressed
same,inhibition of ALK autophosphorylation compared with crizotinib,[1]; ALK L1196M-TEL Ba/F3 cells,more effective than crizotinib
same,levels of cleaved PARP and cleaved caspase-3 (western blot),[2],increases in the levels of cleaved PARP and cleaved caspase-3
